50 compounds from patent US20230321086A1, “METHODS AND MATERIALS FOR INHIBITING NICOTINAMIDE PHOSPHORIBOSYLTRANSFERASE ACTIVITY” (Universiy of Pittsburgh - Of the Commonwealth System of …, priority 2020, published 2023) can be followed below.

For the first experiment, the target named is NAMPT (Homo sapiens, UniProt P43490). The experiment in a line: Assay for in vitro NAMPT activity via NMN assessment. It counts as biochemical. To be noted: read-out: A: NAMPT enzyme inhibitory activity, IC50. As to the method: The following were added to a well: 20 μL 2× test compound in Basic Buffer (0.02% BSA, 2 mM DTT, 12 mM MgCl2, 50 mM Tris pH7.5); 10 μL 8 μg/mL NAMPT, and 200 μM PRPP working solution (or PRPP working solution to background wells). 10 μL 100 μM NAM working solution was added to start the reaction. The plate was sealed and incubated for 45 minutes at 37° C. After incubation, 10 μL 20% acetophenone in DMSO, 10 μL 2N KOH, and 20 μL 88% formic acid were added. The plate was sealed and incubated for 30 minutes at 37° C. After incubation, fluorescence at Ex/Em 387/441 was read.
Sequence of NAMPT (P43490 whole entry, species assumed): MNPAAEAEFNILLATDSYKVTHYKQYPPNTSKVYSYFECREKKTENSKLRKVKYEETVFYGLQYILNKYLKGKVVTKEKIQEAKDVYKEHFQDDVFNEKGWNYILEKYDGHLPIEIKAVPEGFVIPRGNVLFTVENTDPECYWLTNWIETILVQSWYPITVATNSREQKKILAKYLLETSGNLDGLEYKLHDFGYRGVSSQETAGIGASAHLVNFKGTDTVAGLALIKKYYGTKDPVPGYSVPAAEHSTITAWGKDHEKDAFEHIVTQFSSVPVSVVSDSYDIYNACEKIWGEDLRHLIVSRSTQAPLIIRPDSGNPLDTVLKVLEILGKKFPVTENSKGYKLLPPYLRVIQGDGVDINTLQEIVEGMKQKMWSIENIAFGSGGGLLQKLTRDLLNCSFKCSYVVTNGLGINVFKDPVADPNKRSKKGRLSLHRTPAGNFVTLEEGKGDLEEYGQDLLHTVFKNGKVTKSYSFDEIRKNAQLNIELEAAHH
(§1) In each table header, A: NAMPT enzyme inhibitory activity, IC50 (μM); B: Cellular NAD inhibitory activity, IC50 (μM); and C: change in NAD levels in response to test compound, shown as % of NAD activity in the absence of test compound. […] A percentage of 100 percent would indicate no increase or decrease in NAD levels as compared to that measured for untreated control cells, while a percentage of 50 percent would indicate a decrease in NAD levels of 50 percent as compared to that measured for untreated control cells.
One may read the IC50 as the midpoint of a concentration-inhibition curve. As for `O=C(NCCN1CCCC1)c1cnc2nc(-c3ccc(F)cc3)c(-c3ccc(F)cc3)nc2c1` [BC20202], the half-maximal inhibitory concentration (IC50) was at least 25 µM.

As for `O=C(NCc1cccnc1)c1cnc2nc(-c3ccc(F)cc3)c(-c3ccc(F)cc3)nc2c1` [BC20203], the half-maximal inhibitory concentration (IC50) is 1 to 25 µM.

For the compound `O=C(NCc1ccncc1)c1cnc2nc(-c3ccc(F)cc3)c(-c3ccc(F)cc3)nc2c1` [BC20204], the IC50 is at least 25 µM.

For `O=C(NCCc1ccncc1)c1cnc2nc(-c3ccc(F)cc3)c(-c3ccc(F)cc3)nc2c1` [BC20206], the 50% inhibitory concentration (IC50) was below 1 µM. Take `O=C(NCc1ccccc1)Nc1cnc2nc(-c3ccc(F)cc3)c(-c3ccc(F)cc3)nc2c1` [BC20207]: the half-maximal inhibitory concentration (IC50) is at least 25 µM.

Take `CC(=O)Nc1cccc(-c2nc3cc(C(=O)N4CCN(C)CC4)ccc3nc2-c2ccc(F)cc2)c1` [BC20208]: the IC50 is at least 25 µM.

With `COCC(=O)Nc1cccc(-c2nc3cc(C(=O)N4CCN(C)CC4)ccc3nc2-c2ccc(F)cc2)c1` [BC20209], the 50% inhibitory concentration (IC50) is at least 25 µM. Consider `CN1CCN(C(=O)c2ccc3nc(-c4ccc(F)cc4)c(-c4cccc(NS(C)(=O)=O)c4)nc3c2)CC1` [BC20210], for which the IC50 was at least 25 µM. Take `C#CCNC(=O)c1ccc2nc(-c3ccc(F)cc3)c(-c3cccc(NC(=O)COC)c3)nc2c1` [BC20211]: the IC50 was at least 25 µM. For `C#CCNC(=O)c1ccc2nc(-c3ccc(F)cc3)c(-c3cccc(NS(C)(=O)=O)c3)nc2c1` [BC20212], the half-maximal inhibitory concentration (IC50) is at least 25 µM. The same measure, in the same setting: the value for `C#CCNC(=O)c1ccc2nc(-c3ccc(F)cc3)c(-c3cccc(NC(=O)CN(C)C)c3)nc2c1` [BC20214] was at least 25 µM; that for `CN(C)Cc1cccc(-c2nc3cc(C(=O)N4CCN(C)CC4)ccc3nc2-c2ccc(F)cc2)c1` [BC20215] was at least 25 µM; that for `CC(=O)N1CCCC(NC(=O)Nc2ccc3nc(-c4ccc(F)cc4)c(-c4ccc(F)cc4)nc3c2)C1` (centres unmarked) [BC20217] was 1 to 25 µM.

In the case of `O=C1NCCCN1c1ccc2nc(-c3ccc(F)cc3)c(-c3ccc(F)cc3)nc2c1` [BC20218], the IC50 was at least 25 µM. As to `O=C1N(Cc2cccnc2)CCCN1c1ccc2nc(-c3ccc(F)cc3)c(-c3ccc(F)cc3)nc2c1` [BC20219], the IC50 was at least 25 µM.

Regarding `C#CCNC(=O)c1ccc2nc(-c3ccc(F)cc3)c(-c3cccc(CO)c3)nc2c1` [BC20220], the IC50 was at least 25 µM.

Turning to `COCC(=O)Nc1cccc(-c2nc3ccc(C(=O)N4CCN(C)CC4)cc3nc2-c2cccc(NC(=O)COC)c2)c1` [BC20221], the IC50 is at least 25 µM. In the case of `C#CCNC(=O)c1ccc2nc(-c3ccc(F)cc3)c(-c3cccc(NC(C)=O)c3)nc2c1` [BC20222], the IC50 was at least 25 µM. For the compound `C#CCNC(=O)c1ccc2nc(-c3ccc(F)cc3)c(-c3cccc(CN4CCCC4)c3)nc2c1` [BC20223], the IC50 was at least 25 µM. For `O=C(Nc1ccc2nc(-c3ccc(F)cc3)c(-c3ccc(F)cc3)nc2c1)NC1CCCNC1` (centres unmarked) [BC20225], the IC50 was at least 25 µM. Same read-out and setting: the figure for `O=C1N(Cc2ccncc2)CCCN1c1ccc2nc(-c3ccc(F)cc3)c(-c3ccc(F)cc3)nc2c1` [BC20226] is 1 to 25 µM.

Another experiment has as its system A431 cells. The experiment in a line: Assay for total NADH and NAD+ measurements in cells. It counts as cell-based. More on the design: C: change in NAD levels in response to test compound, shown as % of NAD activity in the absence of test compound: concentration or dose not given beside the values. To be noted: percent of NAD level of untreated control cells (100 = no change). As to the method: 2,000 cells/well and, at the same time, test compounds dissolved in media at the desired concentration were added to each well. The treated cells were incubated overnight in C02 incubator. The cells were washed 6 times with PBS with 1 mM CaCl2) and 1 mM MgCl2. In the last wash, 10 μL of PBS with 1 mM CaCl2) and 1 mM MgCl2 per well were left in each well. Immediately thereafter, 10 μL 0.4% dodecyltrimethylammonium bromide (DTAB) in phosphate buffer pH 8.0 as added, and the plates were shaked at 1000 rpm for 5 minutes. 60 μL reaction mix was added, and fluorescence at Ex/Em 530/585 was immediately monitored. A linear increase should be achieved with 8 cycles every 92 seconds, 10 number of flashes/well/cycle. The reaction mix was prepared per the following table, respecting the amount and order in which each component was added:
All assays were performed in A431 cells. Referring to the tables below, activity: “+” ≥25 μM, “++” ≥1 μM and <25 μM, and “+++”<1 μM.
as §1
As for `O=C1CCCN1CCCNS(=O)(=O)c1ccc2nc(-c3ccc(F)cc3)c(-c3ccc(F)cc3)nc2c1` [BC19560], the “C: change in NAD levels in response to test compound, shown as % of NAD activity in the absence of test compound” value is 51%. With `CN1CCN(CCCNS(=O)(=O)c2ccc3nc(-c4ccc(F)cc4)c(-c4ccc(F)cc4)nc3c2)CC1` [BC19561], the “C: change in NAD levels in response to test compound, shown as % of NAD activity in the absence of test compound” value was found to be 24%. Take `CN(C)CCCNS(=O)(=O)c1ccc2nc(-c3ccc(F)cc3)c(-c3ccc(F)cc3)nc2c1` [BC19562]: the “C: change in NAD levels in response to test compound, shown as % of NAD activity in the absence of test compound” value came out at 1%. Regarding `CCNC(=O)Nc1ccc2nc(-c3ccc(F)cc3)c(-c3ccc(F)cc3)nc2c1` [BC19563], the “C: change in NAD levels in response to test compound, shown as % of NAD activity in the absence of test compound” value is reported as 90%. In the case of `CN(C)CCNC(=O)Nc1ccc2nc(-c3ccc(F)cc3)c(-c3ccc(F)cc3)nc2c1` [BC19564], the “C: change in NAD levels in response to test compound, shown as % of NAD activity in the absence of test compound” value is recorded as 5%. Same read-out and setting: the figure for `COCCNC(=O)Nc1ccc2nc(-c3ccc(F)cc3)c(-c3ccc(F)cc3)nc2c1` [BC19565] is 65%. On the same count and under the same terms, the figure for `O=C(NCCO)Nc1ccc2nc(-c3ccc(F)cc3)c(-c3ccc(F)cc3)nc2c1` [BC19566] is 77%; for `O=C(NCCN1CCOCC1)Nc1ccc2nc(-c3ccc(F)cc3)c(-c3ccc(F)cc3)nc2c1` [BC19567] it is 46%. `O=C(Nc1ccc2nc(-c3ccc(F)cc3)c(-c3ccc(F)cc3)nc2c1)NC1CC1` [BC19568]: the “C: change in NAD levels in response to test compound, shown as % of NAD activity in the absence of test compound” value came to 81%. Same read-out and setting: the value for `O=C(NCC1CC1)Nc1ccc2nc(-c3ccc(F)cc3)c(-c3ccc(F)cc3)nc2c1` [BC19569] was 57%.

On to `O=C(NCc1ccccn1)Nc1ccc2nc(-c3ccc(F)cc3)c(-c3ccc(F)cc3)nc2c1` [BC19570], for which the “C: change in NAD levels in response to test compound, shown as % of NAD activity in the absence of test compound” value came out at 29%.

In the case of `O=C(NCc1cccnc1)Nc1ccc2nc(-c3ccc(F)cc3)c(-c3ccc(F)cc3)nc2c1` [BC19571], the “C: change in NAD levels in response to test compound, shown as % of NAD activity in the absence of test compound” value is 10%. `O=C(NCc1ccncc1)Nc1ccc2nc(-c3ccc(F)cc3)c(-c3ccc(F)cc3)nc2c1` [BC19572]: the “C: change in NAD levels in response to test compound, shown as % of NAD activity in the absence of test compound” value is recorded as 26%.

Consider `CN(C)CCCNC(=O)Nc1ccc2nc(-c3ccc(F)cc3)c(-c3ccc(F)cc3)nc2c1` [BC19573], for which the “C: change in NAD levels in response to test compound, shown as % of NAD activity in the absence of test compound” value stood at 11%. Same read-out and setting: the value for `COCCCNC(=O)Nc1ccc2nc(-c3ccc(F)cc3)c(-c3ccc(F)cc3)nc2c1` [BC19574] was 61%; that for `O=C(NCCCO)Nc1ccc2nc(-c3ccc(F)cc3)c(-c3ccc(F)cc3)nc2c1` [BC19575] was 78%. For the compound `O=C(NCCCN1CCOCC1)Nc1ccc2nc(-c3ccc(F)cc3)c(-c3ccc(F)cc3)nc2c1` [BC19576], the “C: change in NAD levels in response to test compound, shown as % of NAD activity in the absence of test compound” value amounted to 61%. On to `CN1CCN(Cc2ccc3nc(-c4ccc(F)cc4)c(-c4ccc(F)cc4)nc3c2)CC1` [BC19577], for which the “C: change in NAD levels in response to test compound, shown as % of NAD activity in the absence of test compound” value came out at 41%. `CN1CCN(C(=O)c2ccc3nc(-c4ccc(F)cc4)c(Nc4ccc(F)cc4)nc3c2)CC1` [BC19578]: the “C: change in NAD levels in response to test compound, shown as % of NAD activity in the absence of test compound” value turned out to be 89%. For `CN1CCN(CCNC(=O)Nc2ccc3nc(-c4ccc(F)cc4)c(-c4ccc(F)cc4)nc3c2)CC1` [BC19616], the “C: change in NAD levels in response to test compound, shown as % of NAD activity in the absence of test compound” value is on record as 31%.

On to `O=C(NCCCN1CCCC1=O)Nc1ccc2nc(-c3ccc(F)cc3)c(-c3ccc(F)cc3)nc2c1` [BC19617], for which the “C: change in NAD levels in response to test compound, shown as % of NAD activity in the absence of test compound” value is reported as 58%. For the compound `CNc1ncc(-c2ccc3nc(-c4ccc(F)cc4)c(-c4ccc(F)cc4)nc3c2)o1` [BC19619], the “C: change in NAD levels in response to test compound, shown as % of NAD activity in the absence of test compound” value turned out to be 55%. Consider `CN1CCN(C(=O)C2CCc3nc(-c4ccc(F)cc4)c(-c4ccc(F)cc4)nc3C2)CC1` (centres unmarked) [BC19663], for which the “C: change in NAD levels in response to test compound, shown as % of NAD activity in the absence of test compound” value is 18%. For `OCCCn1c(-c2ccc3nc(-c4ccc(F)cc4)c(-c4ccc(F)cc4)nc3c2)n[nH]c1=S` [BC19664], the “C: change in NAD levels in response to test compound, shown as % of NAD activity in the absence of test compound” value was 70%.

In the case of `OCCCn1cnnc1-c1ccc2nc(-c3ccc(F)cc3)c(-c3ccc(F)cc3)nc2c1` [BC19665], the “C: change in NAD levels in response to test compound, shown as % of NAD activity in the absence of test compound” value was determined as 58%. `CN1CCN(C(=O)c2cc3nc(-c4ccc(F)cc4)c(-c4ccc(F)cc4)nc3cn2)CC1` [BC19666]: the “C: change in NAD levels in response to test compound, shown as % of NAD activity in the absence of test compound” value stood at 70%. On the same count and under the same terms, the value for `Cn1oc(-c2ccc3nc(-c4ccc(F)cc4)c(-c4ccc(F)cc4)nc3c2)cc1=O` [BC19667] was 38%; that for `C/N=C(\c1ccc2nc(-c3ccc(F)cc3)c(-c3ccc(F)cc3)nc2c1)N1CCN(C)CC1` [BC19668] was 31%. In the case of `CN1CCN(C(=O)C2Cc3nc(-c4ccc(F)cc4)c(-c4ccc(F)cc4)nc3C2)CC1` [BC19723], the “C: change in NAD levels in response to test compound, shown as % of NAD activity in the absence of test compound” value is 54%.
